Results published in EP1707197A1 (TEVA PHARMACEUTICAL INDUSTRIES LTD., priority 2005, dated 2006).

Experiment: small volume in vitro release test in 50 ml 0.1N HCl
Assay type: physicochemical
Conditions: 37° C, 150 rpm
Experimental: The formulations were tested for their small volume in vitro release characteristics in 50 ml 0.1N HCl at 37° C and 150 rpm using the following procedure:
• a. Automated Dissolution System comprising: • Hanson SR8 Plus Test Station • Hanson Auto Plus Maximiser System Controller • Hanson Auto Plus MultiFill Fraction Collector • b. HPLC System comprising: • pump - Merck Hitachi L-7100 • autoinjector - Merck Hitachi L-7200 • column oven - Merck Hitachi L-7300 • detector - Merck Hitachi L-7400 • interface and integration software - Merck Hitachi D-7000
Place one weighed capsule in each vessel containing 0.1N HCl and immediately operate the apparatus for 30 min. Unless otherwise specified, 3 ml samples are withdrawn from each vessel and immediately filtered through PTFE membranes at 15 and 30 min.
The small volume was chosen as a model of the conditions in a fasted stomach.

% dissolved 15 min (15 min): 0%
% dissolved 30 min (30 min): 0%
Compound: CC(C)OC(=O)C(C)(C)Oc1ccc(C(=O)c2ccc(Cl)cc2)cc1 [Micronized Fenofibrate, 2-[4-(4-chlorobenzoyl)phenoxy]-2-methyl-propanoic acid, 1-methylethyl ester]
